Experimental data published in ChEMBL document CHEMBL5696442, “Discovery of type II inhibitors of TGFβ-activated kinase 1 (TAK1) and mitogen-activated protein kinase kinase kinase kinase 2 (MAP4K2)” (J Med Chem, 2015).
Activity calls are given as the source filed them. The calls are words filed in the database; no cut-off is given here.

How the values were obtained:
[1] = target: Tyrosine-protein kinase CSK (Homo sapiens, UniProt P41240); assay: Inhibition of CSK ACT labeling site harbouring VSDFGLTKEASSTQDTGK in human Huh-7 cells at 1 uM by KiNativ Profiling analysis relative to control; assay type: cell-based
[2] = target: Cyclin-dependent kinase 6 (Homo sapiens) (UniProt Q00534); assay: Inhibition of CDK6 Lys2 labeling site in human Huh-7 cell lysate at 1 uM by KiNativ Profiling analysis relative to control; assay type: subcellular
[3] = target: Serine/threonine-protein kinase Nek7 (Homo sapiens) (UniProt Q8TDX7); assay: Inhibition of NEK7 Lys1 labeling site in human Huh-7 cells at 1 uM by KiNativ Profiling analysis relative to control; assay type: cell-based
[4] = target: T1, Dual specificity mitogen-activated protein kinase kinase 6 (Homo sapiens) (UniProt P52564); assay: Inhibition of MAP2K6 ACT labeling site in human Huh-7 cells at 1 uM by KiNativ Profiling analysis relative to control; assay type: cell-based
T1 sequence (whole entry): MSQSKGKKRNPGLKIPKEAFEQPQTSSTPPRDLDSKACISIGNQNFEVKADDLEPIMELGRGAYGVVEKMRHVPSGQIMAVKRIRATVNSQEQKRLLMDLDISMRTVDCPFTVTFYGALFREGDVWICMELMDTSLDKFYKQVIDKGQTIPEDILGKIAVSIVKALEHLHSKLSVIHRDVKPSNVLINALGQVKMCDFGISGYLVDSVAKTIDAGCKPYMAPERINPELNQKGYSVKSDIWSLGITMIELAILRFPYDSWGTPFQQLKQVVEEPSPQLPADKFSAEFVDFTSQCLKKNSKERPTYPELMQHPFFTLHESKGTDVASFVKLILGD

[5] = target: Calcium/calmodulin-dependent protein kinase type 1D (Homo sapiens) (UniProt Q8IU85); assay: Inhibition of CAMK1D (unknown origin) at 10 uM by Ambit Kinomescan binding assay relative to control
[6] = target: Serine/threonine-protein kinase MRCK gamma (Homo sapiens) (UniProt Q6DT37); assay: Inhibition of DMPK2 (unknown origin) at 10 uM by Ambit Kinomescan binding assay
[7] = target: Serine/threonine-protein kinase 32C (Homo sapiens) (UniProt Q86UX6); assay: Inhibition of YANK3 (unknown origin) at 10 uM by Ambit Kinomescan binding assay
[8] = target: Receptor tyrosine-protein kinase erbB-2 (Homo sapiens) (UniProt P04626); assay: Inhibition of ERBB2 (unknown origin) at 1 uM by Ambit Kinomescan binding assay relative to control
[9] = target: Leucine-rich repeat serine/threonine-protein kinase 2 (Homo sapiens) (UniProt Q5S007); assay: Inhibition of LRRK2 (unknown origin) at 1 uM by Ambit Kinomescan binding assay relative to control; values are per cent of control
[10] = target: Non-receptor tyrosine-protein kinase TYK2 (Homo sapiens) (UniProt P29597); assay: Inhibition of TYK2 JH2 pseudokinase domain (unknown origin) at 1 uM by Ambit Kinomescan binding assay relative to control
[11] = target: T2, Receptor-interacting serine/threonine-protein kinase 4 (Homo sapiens) (UniProt P57078); assay: Inhibition of ANKRD3 Lys1 labeling site in human A-375 cells at 5 uM by KiNativ Profiling analysis relative to control; assay type: cell-based
T2 sequence (whole entry): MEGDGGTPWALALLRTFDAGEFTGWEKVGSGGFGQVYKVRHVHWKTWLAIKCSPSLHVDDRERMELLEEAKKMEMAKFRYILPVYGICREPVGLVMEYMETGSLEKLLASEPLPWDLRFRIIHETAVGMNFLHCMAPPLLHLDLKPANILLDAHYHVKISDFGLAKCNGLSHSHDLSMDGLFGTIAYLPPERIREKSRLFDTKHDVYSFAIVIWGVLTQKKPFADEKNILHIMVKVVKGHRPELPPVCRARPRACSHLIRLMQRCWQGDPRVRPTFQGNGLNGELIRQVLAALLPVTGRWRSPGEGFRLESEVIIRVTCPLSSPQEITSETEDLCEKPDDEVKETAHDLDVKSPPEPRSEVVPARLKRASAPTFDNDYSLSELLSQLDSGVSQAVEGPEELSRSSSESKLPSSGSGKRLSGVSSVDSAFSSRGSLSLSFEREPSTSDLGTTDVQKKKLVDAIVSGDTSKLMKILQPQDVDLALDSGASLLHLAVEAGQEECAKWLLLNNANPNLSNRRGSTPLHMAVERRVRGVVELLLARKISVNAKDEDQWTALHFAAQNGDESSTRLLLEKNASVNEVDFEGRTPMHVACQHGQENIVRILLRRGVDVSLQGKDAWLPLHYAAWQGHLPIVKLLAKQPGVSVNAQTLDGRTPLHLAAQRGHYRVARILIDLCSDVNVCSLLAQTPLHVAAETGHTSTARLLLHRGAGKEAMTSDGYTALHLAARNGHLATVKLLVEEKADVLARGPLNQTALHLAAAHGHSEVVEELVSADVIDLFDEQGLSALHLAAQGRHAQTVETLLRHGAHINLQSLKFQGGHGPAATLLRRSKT

[12] = target: Cyclin-dependent kinase 7 (Homo sapiens) (UniProt P50613); assay: Inhibition of CDK7 Lys2 labeling site in human A-375 cells at 5 uM by KiNativ Profiling analysis relative to control; assay type: cell-based
[13] = target: T3, Dual specificity mitogen-activated protein kinase kinase 3 (Homo sapiens) (UniProt P46734); assay: Inhibition of MAP2K3 Lys2 labeling site in human A-375 cells at 0.5 uM by KiNativ Profiling analysis relative to control; assay type: cell-based
T3 sequence (whole entry): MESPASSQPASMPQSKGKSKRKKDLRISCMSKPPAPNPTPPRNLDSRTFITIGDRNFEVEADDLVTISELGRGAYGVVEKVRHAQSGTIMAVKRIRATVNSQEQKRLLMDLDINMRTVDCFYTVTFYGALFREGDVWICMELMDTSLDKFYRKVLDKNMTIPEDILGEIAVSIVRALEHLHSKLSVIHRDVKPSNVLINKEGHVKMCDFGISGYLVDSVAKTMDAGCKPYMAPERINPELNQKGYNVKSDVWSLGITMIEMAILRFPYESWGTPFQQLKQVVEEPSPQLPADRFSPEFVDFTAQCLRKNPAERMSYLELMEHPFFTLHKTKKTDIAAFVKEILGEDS

Sequence of Serine/threonine-protein kinase 32C (Homo sapiens) (Q86UX6 whole entry): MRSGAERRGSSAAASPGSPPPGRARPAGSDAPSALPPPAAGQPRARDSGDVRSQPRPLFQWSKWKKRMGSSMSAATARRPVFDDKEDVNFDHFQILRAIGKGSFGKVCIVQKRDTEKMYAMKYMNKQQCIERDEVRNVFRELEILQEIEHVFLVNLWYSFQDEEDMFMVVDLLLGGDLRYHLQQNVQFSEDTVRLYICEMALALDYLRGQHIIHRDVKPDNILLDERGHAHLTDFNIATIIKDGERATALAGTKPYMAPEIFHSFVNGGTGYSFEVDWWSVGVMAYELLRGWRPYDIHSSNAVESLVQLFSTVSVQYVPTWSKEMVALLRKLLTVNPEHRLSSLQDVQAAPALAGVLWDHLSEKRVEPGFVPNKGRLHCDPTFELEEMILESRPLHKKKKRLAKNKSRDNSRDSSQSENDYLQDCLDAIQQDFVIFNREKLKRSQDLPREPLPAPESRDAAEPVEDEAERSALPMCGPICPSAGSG
Sequence of Calcium/calmodulin-dependent protein kinase type 1D (Homo sapiens) (Q8IU85 whole entry, looked up): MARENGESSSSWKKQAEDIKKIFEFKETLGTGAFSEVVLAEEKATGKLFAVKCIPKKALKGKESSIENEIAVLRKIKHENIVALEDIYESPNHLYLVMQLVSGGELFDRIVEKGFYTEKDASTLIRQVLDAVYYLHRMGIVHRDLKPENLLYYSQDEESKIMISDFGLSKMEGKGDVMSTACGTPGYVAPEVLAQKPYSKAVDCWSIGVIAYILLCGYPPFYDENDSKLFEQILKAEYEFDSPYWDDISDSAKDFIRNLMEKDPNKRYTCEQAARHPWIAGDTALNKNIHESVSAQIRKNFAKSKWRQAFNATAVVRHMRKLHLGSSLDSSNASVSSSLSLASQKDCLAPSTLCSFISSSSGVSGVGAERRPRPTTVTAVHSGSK
Sequence of Leucine-rich repeat serine/threonine-protein kinase 2 (Homo sapiens) (Q5S007 whole entry, the tested form may be a part): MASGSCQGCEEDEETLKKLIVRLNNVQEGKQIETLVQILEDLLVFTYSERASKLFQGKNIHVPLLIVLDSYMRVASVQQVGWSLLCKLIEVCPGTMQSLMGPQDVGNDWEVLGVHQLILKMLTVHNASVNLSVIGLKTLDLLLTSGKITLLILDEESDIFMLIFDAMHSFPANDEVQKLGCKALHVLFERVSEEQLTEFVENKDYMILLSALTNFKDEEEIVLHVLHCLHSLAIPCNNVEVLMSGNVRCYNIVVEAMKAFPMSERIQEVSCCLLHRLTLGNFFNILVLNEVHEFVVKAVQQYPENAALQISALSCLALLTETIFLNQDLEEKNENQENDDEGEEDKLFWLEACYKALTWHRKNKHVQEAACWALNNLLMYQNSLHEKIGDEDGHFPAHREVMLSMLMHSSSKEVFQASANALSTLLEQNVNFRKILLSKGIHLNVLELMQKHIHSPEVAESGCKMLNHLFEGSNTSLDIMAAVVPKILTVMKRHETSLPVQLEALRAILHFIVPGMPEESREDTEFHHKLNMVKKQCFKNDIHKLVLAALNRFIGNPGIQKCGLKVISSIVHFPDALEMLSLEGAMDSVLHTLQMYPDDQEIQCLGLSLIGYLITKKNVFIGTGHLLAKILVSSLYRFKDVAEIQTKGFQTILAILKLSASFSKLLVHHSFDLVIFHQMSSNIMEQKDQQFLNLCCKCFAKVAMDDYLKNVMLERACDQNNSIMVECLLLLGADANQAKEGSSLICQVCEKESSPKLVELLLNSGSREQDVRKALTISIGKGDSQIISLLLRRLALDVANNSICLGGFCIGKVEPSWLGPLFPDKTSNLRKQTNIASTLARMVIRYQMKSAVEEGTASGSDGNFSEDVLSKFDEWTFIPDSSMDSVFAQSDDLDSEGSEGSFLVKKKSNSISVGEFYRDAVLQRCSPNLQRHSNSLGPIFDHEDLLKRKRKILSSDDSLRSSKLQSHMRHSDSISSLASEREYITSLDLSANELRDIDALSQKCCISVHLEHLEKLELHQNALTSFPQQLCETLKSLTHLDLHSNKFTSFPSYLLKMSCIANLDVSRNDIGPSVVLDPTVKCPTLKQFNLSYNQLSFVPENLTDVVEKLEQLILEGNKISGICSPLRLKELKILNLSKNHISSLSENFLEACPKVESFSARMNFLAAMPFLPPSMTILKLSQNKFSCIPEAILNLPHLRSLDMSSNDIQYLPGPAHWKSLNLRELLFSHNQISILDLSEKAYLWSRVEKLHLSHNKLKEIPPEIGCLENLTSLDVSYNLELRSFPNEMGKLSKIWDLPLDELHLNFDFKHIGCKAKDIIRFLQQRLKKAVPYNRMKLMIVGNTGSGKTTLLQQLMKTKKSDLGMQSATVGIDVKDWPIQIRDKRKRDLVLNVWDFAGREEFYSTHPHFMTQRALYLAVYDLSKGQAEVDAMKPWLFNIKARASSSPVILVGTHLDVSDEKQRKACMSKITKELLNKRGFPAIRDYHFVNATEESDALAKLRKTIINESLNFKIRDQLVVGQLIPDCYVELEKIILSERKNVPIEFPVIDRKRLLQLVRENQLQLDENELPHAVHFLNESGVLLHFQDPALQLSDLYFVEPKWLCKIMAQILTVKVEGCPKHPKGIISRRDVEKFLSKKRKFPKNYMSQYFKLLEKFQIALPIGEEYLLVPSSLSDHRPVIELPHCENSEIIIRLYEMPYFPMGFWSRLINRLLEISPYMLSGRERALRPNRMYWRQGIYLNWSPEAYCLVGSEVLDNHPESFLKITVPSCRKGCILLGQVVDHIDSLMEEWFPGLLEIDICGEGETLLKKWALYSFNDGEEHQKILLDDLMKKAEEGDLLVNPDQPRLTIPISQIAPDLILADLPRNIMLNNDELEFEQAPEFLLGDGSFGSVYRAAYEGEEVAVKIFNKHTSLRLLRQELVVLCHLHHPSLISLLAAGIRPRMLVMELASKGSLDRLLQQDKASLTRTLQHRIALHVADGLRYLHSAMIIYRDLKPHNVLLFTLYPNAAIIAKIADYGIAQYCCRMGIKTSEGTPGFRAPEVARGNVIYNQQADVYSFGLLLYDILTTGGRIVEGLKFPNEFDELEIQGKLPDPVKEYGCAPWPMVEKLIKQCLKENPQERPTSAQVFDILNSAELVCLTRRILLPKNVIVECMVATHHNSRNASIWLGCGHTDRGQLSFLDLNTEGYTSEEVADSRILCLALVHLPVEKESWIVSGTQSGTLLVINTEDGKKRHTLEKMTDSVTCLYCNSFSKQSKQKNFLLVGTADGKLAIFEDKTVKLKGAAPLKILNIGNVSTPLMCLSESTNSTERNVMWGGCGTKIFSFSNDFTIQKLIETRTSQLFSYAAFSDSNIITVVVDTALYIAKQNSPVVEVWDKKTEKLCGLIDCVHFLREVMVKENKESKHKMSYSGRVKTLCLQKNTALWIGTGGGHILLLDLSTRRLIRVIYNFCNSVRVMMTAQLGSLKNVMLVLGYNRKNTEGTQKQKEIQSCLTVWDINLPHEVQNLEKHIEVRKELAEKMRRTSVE
Sequence of Cyclin-dependent kinase 7 (Homo sapiens) (P50613 whole entry): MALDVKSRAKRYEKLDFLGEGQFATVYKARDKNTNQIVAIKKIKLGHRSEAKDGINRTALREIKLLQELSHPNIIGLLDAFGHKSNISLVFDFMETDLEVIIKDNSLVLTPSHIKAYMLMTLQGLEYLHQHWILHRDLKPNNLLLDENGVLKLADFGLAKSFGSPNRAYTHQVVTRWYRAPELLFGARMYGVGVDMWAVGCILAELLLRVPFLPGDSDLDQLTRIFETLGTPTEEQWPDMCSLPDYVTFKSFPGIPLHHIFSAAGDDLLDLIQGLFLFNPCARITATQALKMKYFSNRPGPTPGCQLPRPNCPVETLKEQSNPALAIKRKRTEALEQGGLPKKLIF
Sequence of Serine/threonine-protein kinase Nek7 (Homo sapiens) (Q8TDX7 whole entry, looked up): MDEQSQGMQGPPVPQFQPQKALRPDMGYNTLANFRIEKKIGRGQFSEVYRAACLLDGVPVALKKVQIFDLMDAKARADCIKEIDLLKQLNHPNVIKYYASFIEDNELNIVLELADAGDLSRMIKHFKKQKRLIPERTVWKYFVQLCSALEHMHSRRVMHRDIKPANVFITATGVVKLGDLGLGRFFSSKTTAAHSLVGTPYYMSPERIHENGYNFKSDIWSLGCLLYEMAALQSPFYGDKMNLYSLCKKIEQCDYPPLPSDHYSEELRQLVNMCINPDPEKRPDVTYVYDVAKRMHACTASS
Sequence of Tyrosine-protein kinase CSK (P41240 2-450 limits assumed): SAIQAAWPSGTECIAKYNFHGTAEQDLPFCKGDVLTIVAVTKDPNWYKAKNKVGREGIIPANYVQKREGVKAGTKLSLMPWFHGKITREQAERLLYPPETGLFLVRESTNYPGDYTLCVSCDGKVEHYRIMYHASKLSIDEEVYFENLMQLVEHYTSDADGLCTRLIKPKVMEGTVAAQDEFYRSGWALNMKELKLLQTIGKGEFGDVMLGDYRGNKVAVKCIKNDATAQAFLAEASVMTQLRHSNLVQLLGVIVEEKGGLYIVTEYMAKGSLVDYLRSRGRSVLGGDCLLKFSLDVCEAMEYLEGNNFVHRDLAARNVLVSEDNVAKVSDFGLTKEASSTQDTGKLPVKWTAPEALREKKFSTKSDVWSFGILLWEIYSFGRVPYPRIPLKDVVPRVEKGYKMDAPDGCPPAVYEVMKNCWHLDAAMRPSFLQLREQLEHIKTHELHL
Sequence of Cyclin-dependent kinase 6 (Homo sapiens) (Q00534 whole entry): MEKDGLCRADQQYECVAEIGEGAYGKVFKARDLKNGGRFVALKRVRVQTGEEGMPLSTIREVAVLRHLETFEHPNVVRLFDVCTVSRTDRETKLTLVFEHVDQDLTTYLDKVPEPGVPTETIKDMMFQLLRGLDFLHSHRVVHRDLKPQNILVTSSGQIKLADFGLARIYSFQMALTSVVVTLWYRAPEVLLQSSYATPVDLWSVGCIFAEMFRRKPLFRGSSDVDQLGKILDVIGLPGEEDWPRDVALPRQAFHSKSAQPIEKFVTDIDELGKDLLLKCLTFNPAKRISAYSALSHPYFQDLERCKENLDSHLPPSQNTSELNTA

CNc1cc(Oc2cc(C(=O)Nc3cc(N4CCN(C)CC4)cc(C(F)(F)F)c3)ccc2C)ncn1 showed an inhibition [1] of 16.6%, an inhibition [2] of -1.9% and an inhibition [3] of 7.6%.

In the case of CCN1CCN(Cc2ccc(NC(=O)c3ccc(C)c(Oc4ccnc5[nH]ccc45)c3)cc2C(F)(F)F)CC1, the inhibition [4] is reported as 9.2%, the inhibition [5] is reported as 6.2% and the inhibition [6] is reported as “inactive”. The inhibition [7] was “inactive”.

CCN1CCN(Cc2ccc(NC(=O)c3ccc(C)c(/C=C/c4cnc5[nH]ccc5c4OC)c3)cc2C(F)(F)F)CC1 showed an inhibition [8] of 19%, a residual activity [9] of 53% and an inhibition [10] of 47%. For the same compound, the inhibition [11] was 17%, the inhibition [12] was 38.7% and the inhibition [13] was 6.4%.
